Ten compounds from US11472791B2 (Incyte Corporation, priority 2019, dated 2022) can be followed below.

The target in the assay is CDK2/Cyclin E1 (Homo sapiens (Human), UniProt P24941). The assay can be described thus: CDK2/Cyclin E1 HTRF enzyme activity assay. Format: biochemical. To be noted: 1 mM ATP. The method, then: Assays are conducted in white 384-well polystyrene plates in a final reaction volume of 8 μL. […] HTRF signals are read after 1 hour at room temperature on a PHERAstar FS plate reader (BMG Labtech). Data is analyzed with IDBS XLFit and GraphPad Prism 5.0 software using a three or four parameter dose response curve to determine IC50 for each compound.
For orientation: TR-FRET usually uses a lanthanide donor and a delayed reading to cut background.
For `CS(=O)(=O)N1CCC(Nc2ncc(C(F)(F)F)c(-c3cnn(C4CCCCC4)c3)n2)CC1` [Example 12, 4-(1-Cyclohexyl-1H-pyrazol-4-yl)-N-(1-(methylsulfonyl)piperidin-4-yl)-5-(trifluoromethyl)pyrimidin-2-amine], the half-maximal inhibitory concentration (IC50) – broadly, the concentration that gives 50% inhibition – is below 50 nM.

In the case of `CCN1CCN(CCCS(=O)(=O)N2CC[C@H](Nc3ncc(C(F)(F)F)c(-c4cnn(CC(C)(C)O)c4)n3)[C@H](F)C2)CC1` [Example 210, 1-(4-(2-(((3R,45)-1-((3-(4-Ethylpiperazin-1-yl)propyl)sulfonyl)-3-fluoropiperidin-4-yl)amino)-5-(trifluoromethyl)pyrimidin-4-yl)-1H-pyrazol-1-yl)-2-methylpropan-2-ol], the IC50 was below 50 nM.

`[2H]C([2H])([2H])NCc1ccc(-n2cc(-c3nc(N[C@H]4CCN(S(=O)(=O)C5CC5)C[C@H]4F)ncc3C#N)cn2)c(Cl)c1` [Example 145, 4-(1-(2-Chloro-4-(((methyl-d3)amino)methyl)phenyl)-1H-pyrazol-4-yl)-2-(((3R,4S)-1-(cyclopropylsulfonyl)-3-fluoropiperidin-4-yl)amino)pyrimidine-5-carbonitrile] gave an IC50 below 50 nM.

As to `CO[C@H]1CCN(CCCS(=O)(=O)N2CCC(Nc3ncc(C(F)(F)F)c(-c4cnn(CC(C)(C)O)c4)n3)CC2)C1` [Example 219, (S)-1-(4-(2-((1-((3-(3-Methoxypyrrolidin-1-yl)propyl)sulfonyl)piperidin-4-yl)amino)-5-(trifluoromethyl)pyrimidin-4-yl)-1H-pyrazol-1-yl)-2-methylpropan-2-ol], the IC50 is below 50 nM.

Take `CN1C[C@@H]2C[C@H]1CN2CCCS(=O)(=O)N1CC[C@H](Nc2ncc(C(F)(F)F)c(-c3cnn(CC(C)(C)O)c3)n2)[C@H](F)C1` [Example 211, 1-(4-(2-(((3R,4S)-3-Fluoro-1-((3-((1S,4S)-5-methyl-2,5-diazabicyclo[2.2.1]heptan-2-yl)propyl)sulfonyl)piperidin-4-yl)amino)-5-(trifluoromethyl)pyrimidin-4-yl)-1H-pyrazol-1-yl)-2-methylpropan-2-ol]: the IC50 is below 50 nM.

On to `CCN(CC)CCCS(=O)(=O)N1CCC(Nc2ncc(C(F)(F)F)c(-c3cnn(CC(C)(C)O)c3)n2)CC1` [Example 64, 1-(4-(2-((1-((3-(Diethylamino)propyl)sulfonyl)piperidin-4-yl)amino)-5-(trifluoromethyl)pyrimidin-4-yl)-1H-pyrazol-1-yl)-2-methylpropan-2-ol], for which the IC50 is below 50 nM.

`[2H]C([2H])([2H])NCc1ccc(-n2cc(-c3nc(N[C@H]4CCN(S(=O)(=O)CC)C[C@H]4F)ncc3C#N)cn2)c(Cl)c1` [Example 144, 4-(1-(2-Chloro-4-(((methyl-d3)amino)methyl)phenyl)-1H-pyrazol-4-yl)-2-(((3R,4S)-1-(ethylsulfonyl)-3-fluoropiperidin-4-yl)amino)pyrimidine-5-carbonitrile] registered an IC50 below 50 nM.

The compound `CS(=O)(=O)N1CCC(Nc2ncc(C#N)c(-c3cnn(-c4ccc(CN[C@@H]5CCCC[C@@H]5O)cc4Cl)c3)n2)CC1` [Example 179, 4-(1-(2-Chloro-4-((((1R,2S)-2-hydroxycyclohexyl)amino)methyl)phenyl)-1H-pyrazol-4-yl)-2((1-(methylsulfonyl)piperidin-4-yl)amino)pyrimidine-5-carbonitrile] returned an IC50 below 50 nM.

As to `CS(=O)(=O)N1CCC(Nc2ncc(C#N)c(-c3cnn(-c4ccc(CNC5CCC(C#N)CC5)cc4Cl)c3)n2)CC1` (stereo not shown) [Example 183, 4-(1-(2-Chloro-4-(((4-cyanocyclohexyl)amino)methyl)phenyl)-1H-pyrazol-4-yl)-2-((1-(methylsulfonyl)piperidin-4-yl)amino)pyrimidine-5-carbonitrile], the half-inhibitory concentration (IC50) was below 50 nM.

`CS(=O)(=O)N1CCC(Nc2ncc(C#N)c(-c3cnn(-c4ccc(CN[C@H]5CCC[C@@H](O)C5)cc4Cl)c3)n2)CC1` [Example 180, 4-(1-(2-Chloro-4-((((1S,3R)-3-hydroxycyclohexyl)amino)methyl)phenyl)-1H-pyrazol-4-yl)-2((1-(methylsulfonyl)piperidin-4-yl)amino)pyrimidine-5-carbonitrile] registered an IC50 below 50 nM.
